Data taken from patent US20240228555A9, “ANTIMICROBIAL PEPTIDOMIMETICS” (Basilea Pharmaceutica International AG, Allschwil, priority 2020, published 2024).
Where a SMILES comes first, the peptide text is derived from it.

How the values were obtained:
[1] = tested on: Escherichia coli ATCC 25922; conditions: ATCC 25922
In short: (§1)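 First, bacterial colonies are suspended in saline and adjusted to 0.5 McFarland. Next, the suspension is diluted into cation-adjusted Mueller-Hinton II broth (approx. 5×10^5 CFU/mL). Finally, it is added to two-fold serially diluted peptide, with polysorbate 80 at 0.002% final.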

[2] = tested on: Escherichia coli MCR-1 Af 45; conditions: Mueller-Hinton broth II, no visible growth after 18-20 hours at 35° C.
In short: as §1

[3] = tested on: Klebsiella pneumoniae SSI3010; conditions: SSI3010
In short: as §1

[4] = tested on: human red blood cells (hRBC); format: cell-based; conditions: red cells of human, 1 h, 0.2 g/L
In short: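 Percent lysis was derived from supernatant absorbance at 540 nm relative to full lysis by 2.5% Triton X-100 (PBS defines 0%). Compounds, 200 μg/mL, were exposed for 1 h at 37° C to a 20% (v/v) suspension of washed human red cells.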

Compound | Escherichia coli ATCC 25922 MIC [1] [µg/mL] | Escherichia coli MCR-1 Af 45 MIC [2] [µg/mL] | Klebsiella pneumoniae SSI3010 MIC [3] [µg/mL] | Hemolysis at 0.2 g/L [4] [%]
CC[C@H](C)[C@H](NC(=O)[C@@H](NC(=O)[C@@H]1C[C@@H](O)CN1C(=O)[C@@H](N)C(C)C)[C@@H](C)CC)C(=O)N[C@@H](Cc1ccc(O)cc1)C(=O)N[C@@H]1C(=O)N[C@@H](CC(N)=O)C(=O)N[C@@H](CCCNC(=N)N)C(=O)N[C@@H](CCN)C(=O)N[C@@H]([C@@H](C)O)C(=O)N[C@H](CCN)C(=O)N[C@@H]([C@@H](C)CC)C(=O)N[C@H](C(=O)N[C@@H](CCN)C(=O)N[C@@H](CCCNC(=N)N)C(=O)N[C@@H](Cc2ccc(O)cc2)C(=O)O)CSSC1(C)C [Example 87, Val-Hyp-Ile-Ile-Tyr-Pen-Asn-Arg-Dab-Thr-^DDab-Ile-Cys-Dab-Arg-Tyr] (HELM PEPTIDE1{V.[Hyp].I.I.Y.[Pen].N.R.[Dab].T.[NCC[C@@H](N[*:1])C(=O)[*:2]].I.C.[Dab].R.Y}$PEPTIDE1,PEPTIDE1,6:R3-13:R3$$$V2.0) | 0.125 | 0.125 | 0.25 | <1
CC[C@H](C)[C@@H]1NC(=O)[C@@H](NC(=O)[C@H](Cc2ccc(O)cc2)NC(=O)[C@@H](NC(=O)[C@@H](NC(=O)[C@@H]2C[C@@H](O)CN2C(=O)[C@@H](N)C(C)C)[C@@H](C)CC)[C@@H](C)O)C(C)(C)SSC[C@@H](C(=O)N[C@@H](CCN)C(=O)N[C@@H](CCCN)C(=O)N[C@@H](Cc2ccc(O)cc2)C(=O)O)NC(=O)[C@H](CCCCN)NC(=O)[C@@H](CCN)NC(=O)[C@H]([C@@H](C)O)NC(=O)[C@H](CCN)NC(=O)[C@H](CCCNC(=N)N)NC1=O [Example 88, Val-Hyp-Ile-Thr-Tyr-Pen-Ile-Arg-Dab-Thr-^DDab-Lys-Cys-Dab-Orn-Tyr] (HELM PEPTIDE1{V.[Hyp].I.T.Y.[Pen].I.R.[Dab].T.[NCC[C@@H](N[*:1])C(=O)[*:2]].K.C.[Dab].[Orn].Y}$PEPTIDE1,PEPTIDE1,6:R3-13:R3$$$V2.0) | 0.125 | 0.0625 | 0.25 | <1
CC[C@H](C)[C@H](NC(=O)[C@@H]1C[C@@H](O)CN1C(=O)[C@@H](N)C(C)C)C(=O)N[C@@H](CCN)C(=O)N[C@@H](Cc1ccc(O)cc1)C(=O)N[C@@H]1C(=O)N[C@@H](CC(N)=O)C(=O)N[C@@H](CCCNC(=N)N)C(=O)N[C@@H](CCN)C(=O)N[C@@H]([C@@H](C)O)C(=O)N[C@H](CCN)C(=O)N[C@@H](CCCCN)C(=O)N[C@H](C(=O)N[C@@H](CCN)C(=O)N[C@@H](CCCN)C(=O)N[C@@H](Cc2ccc(O)cc2)C(=O)O)CSSC1(C)C [Example 89, Val-Hyp-Ile-Dab-Tyr-Pen-Asn-Arg-Dab-Thr-^DDab-Lys-Cys-Dab-Orn-Tyr] (HELM PEPTIDE1{V.[Hyp].I.[Dab].Y.[Pen].N.R.[Dab].T.[NCC[C@@H](N[*:1])C(=O)[*:2]].K.C.[Dab].[Orn].Y}$PEPTIDE1,PEPTIDE1,6:R3-13:R3$$$V2.0) | 0.0625 | 0.0625 | 0.25 | <1
CC[C@H](C)[C@H](NC(=O)[C@@H](NC(=O)[C@@H]1C[C@@H](N)CN1C(=O)[C@@H](N)C(C)C)[C@@H](C)CC)C(=O)N[C@@H](Cc1ccc(O)cc1)C(=O)N[C@@H]1C(=O)N[C@@H](CC(N)=O)C(=O)N[C@@H](CCCNC(=N)N)C(=O)N[C@@H](CCN)C(=O)N[C@@H]([C@@H](C)O)C(=O)N[C@H](CCN)C(=O)N[C@@H]([C@@H](C)CC)C(=O)N[C@H](C(=O)N[C@@H](CCN)C(=O)N[C@@H](CCCNC(=N)N)C(=O)N[C@@H](Cc2ccc(O)cc2)C(=O)O)CSSC1(C)C [Example 90, Val-Pro((4R)NH2)-Ile-Ile-Tyr-Pen-Asn-Arg-Dab-Thr-^DDab-Ile-Cys-Dab-Arg-Tyr] (HELM PEPTIDE1{V.[N[C@@H]1C[C@@H](C(=O)[*:2])N([*:1])C1].I.I.Y.[Pen].N.R.[Dab].T.[NCC[C@@H](N[*:1])C(=O)[*:2]].I.C.[Dab].R.Y}$PEPTIDE1,PEPTIDE1,6:R3-13:R3$$$V2.0) | 0.125 | 0.0625 | 0.25 | <1
CC[C@H](C)[C@H](NC(=O)[C@@H](NC(=O)[C@@H]1C[C@@H](N)CN1C(=O)[C@@H](N)C(C)C)[C@@H](C)CC)C(=O)N[C@@H](Cc1ccc(O)cc1)C(=O)N[C@@H]1C(=O)N[C@@H](CC(N)=O)C(=O)N[C@@H](CCCNC(=N)N)C(=O)N[C@@H](CCN)C(=O)N[C@@H]([C@@H](C)O)C(=O)N[C@H](CCN)C(=O)N[C@@H](CCCNC(N)=O)C(=O)N[C@H](C(=O)N[C@@H](CCN)C(=O)N[C@@H](CCCNC(=N)N)C(=O)N[C@@H](Cc2ccc(O)cc2)C(=O)O)CSSC1(C)C [Example 91, Val-Pro((4R)NH2)-Ile-Ile-Tyr-Pen-Asn-Arg-Dab-Thr-^DDab-Cit-Cys-Dab-Arg-Tyr] (HELM PEPTIDE1{V.[N[C@@H]1C[C@@H](C(=O)[*:2])N([*:1])C1].I.I.Y.[Pen].N.R.[Dab].T.[NCC[C@@H](N[*:1])C(=O)[*:2]].[Cit].C.[Dab].R.Y}$PEPTIDE1,PEPTIDE1,6:R3-13:R3$$$V2.0) | 0.25 | 0.03125 | 0.25 | <1
CC[C@H](C)[C@@H]1NC(=O)[C@@H](NC(=O)[C@H](Cc2ccc(O)cc2)NC(=O)[C@@H](NC(=O)[C@@H](NC(=O)[C@@H]2C[C@@H](O)CN2C(=O)[C@@H](N)C(C)C)[C@@H](C)CC)[C@@H](C)O)C(C)(C)SSC[C@@H](C(=O)N[C@@H](CO)C(=O)N[C@@H](CCCN)C(=O)N[C@@H](Cc2ccc(O)cc2)C(=O)O)NC(=O)[C@H](CCCCN)NC(=O)[C@@H](CCN)NC(=O)[C@H]([C@@H](C)O)NC(=O)[C@H](CCN)NC(=O)[C@H](CCCNC(=N)N)NC1=O [Example 92, Val-Hyp-Ile-Thr-Tyr-Pen-Ile-Arg-Dab-Thr-^DDab-Lys-Cys-Ser-Orn-Tyr] (HELM PEPTIDE1{V.[Hyp].I.T.Y.[Pen].I.R.[Dab].T.[NCC[C@@H](N[*:1])C(=O)[*:2]].K.C.S.[Orn].Y}$PEPTIDE1,PEPTIDE1,6:R3-13:R3$$$V2.0) | 0.25 | 0.125 | 0.5 | <1
CC[C@H](C)[C@H](NC(=O)[C@@H](NC(=O)[C@@H]1C[C@@H](N)CN1C(=O)[C@@H](N)C(C)C)[C@@H](C)CC)C(=O)N[C@@H](Cc1ccc(O)cc1)C(=O)N[C@@H]1C(=O)N[C@@H](CC(N)=O)C(=O)N[C@@H](CCCNC(=N)N)C(=O)N[C@@H](CCN)C(=O)N[C@@H]([C@@H](C)O)C(=O)N[C@H](CCN)C(=O)N[C@@H](CCCCN)C(=O)N[C@H](C(=O)N[C@@H](CO)C(=O)N[C@@H](CCCNC(=N)N)C(=O)N[C@@H](Cc2ccc(O)cc2)C(=O)O)CSSC1(C)C [Example 93, Val-Pro((4R)NH2)-Ile-Ile-Tyr-Pen-Asn-Arg-Dab-Thr-^DDab-Lys-Cys-Ser-Arg-Tyr] (HELM PEPTIDE1{V.[N[C@@H]1C[C@@H](C(=O)[*:2])N([*:1])C1].I.I.Y.[Pen].N.R.[Dab].T.[NCC[C@@H](N[*:1])C(=O)[*:2]].K.C.S.R.Y}$PEPTIDE1,PEPTIDE1,6:R3-13:R3$$$V2.0) | 0.25 | 0.0625 | 0.25 | <1
CC[C@H](C)[C@H](NC(=O)[C@@H]1C[C@@H](O)CN1C(=O)[C@@H](N)C(C)C)C(=O)N[C@H](C(=O)N[C@@H](Cc1ccc(O)cc1)C(=O)N[C@@H]1C(=O)N[C@@H](CC(N)=O)C(=O)N[C@@H](CCCNC(=N)N)C(=O)N[C@@H](CCN)C(=O)N[C@@H](CO)C(=O)N[C@H](CCN)C(=O)N[C@@H](CCCCN)C(=O)N[C@H](C(=O)N[C@@H](CCN)C(=O)N[C@@H](CCCN)C(=O)N[C@@H](Cc2ccc(O)cc2)C(=O)O)CSSC1(C)C)[C@@H](C)O [Example 94, Val-Hyp-Ile-Thr-Tyr-Pen-Asn-Arg-Dab-Ser-^DDab-Lys-Cys-Dab-Orn-Tyr] (HELM PEPTIDE1{V.[Hyp].I.T.Y.[Pen].N.R.[Dab].S.[NCC[C@@H](N[*:1])C(=O)[*:2]].K.C.[Dab].[Orn].Y}$PEPTIDE1,PEPTIDE1,6:R3-13:R3$$$V2.0) | 0.0625 | 0.0625 | 0.25 | <1
CC[C@H](C)[C@@H]1NC(=O)[C@@H](NC(=O)[C@H](Cc2ccc(O)cc2)NC(=O)[C@@H](NC(=O)[C@@H](NC(=O)[C@@H]2C[C@@H](O)CN2C(=O)[C@@H](N)C(C)(C)C)[C@@H](C)CC)[C@@H](C)O)C(C)(C)SSC[C@@H](C(=O)N[C@@H](CCN)C(=O)N[C@@H](CCCN)C(=O)N[C@@H](Cc2ccc(O)cc2)C(=O)O)NC(=O)[C@H](CCCCN)NC(=O)[C@@H](CCN)NC(=O)[C@H]([C@@H](C)O)NC(=O)[C@H](CCN)NC(=O)[C@H](CCCNC(=N)N)NC1=O [Example 95, tBuGly-Hyp-Ile-Thr-Tyr-Pen-Ile-Arg-Dab-Thr-^DDab-Lys-Cys-Dab-Orn-Tyr] (HELM PEPTIDE1{[CC(C)(C)[C@H](N)C(=O)[*:2]].[Hyp].I.T.Y.[Pen].I.R.[Dab].T.[NCC[C@@H](N[*:1])C(=O)[*:2]].K.C.[Dab].[Orn].Y}$PEPTIDE1,PEPTIDE1,6:R3-13:R3$$$V2.0) | 0.125 | 0.125 | 0.25 | <1
